# Measured values as given in article PMC8470770, “Characterization of a Primate Blood-Brain Barrier Co-Culture Model Prepared from Primary Brain Endothelial Cells, Pericytes and Astrocytes” (Pharmaceutics, 2021).
# Like-named read-outs stand apart in the source and are kept apart here.
# What was measured:
# [1] = set-up: method as in PMID 22906709; settings: cited from earlier work
# [2] = test system: rat BBB co-culture model (EPA); set-up: method as in PMID 22906709; settings: cited from earlier work; for Rat BBB Papp A-B: apical to basal; for Rat BBB Papp B-A: basal to apical
# [3] = test system: primary triple co-culture monkey BBB model; settings: cited from earlier work
# [4] = in vitro; settings: cynomolgus monkey (Macaca fascicularis)
# Method: To prepare the in vitro co-culture models (EPA), pericytes (2 × 10^4 cells/cm^2) were cultured on the bottom sides of collagen-coated culture inserts (Transwell clear, polyester membrane, 0.4 μm pore size, Corning Costar, NY, USA), and astrocytes (0.5 × 10^5 cell/cm^2) were seeded on the collagen-coated well of a 24-well culture plate. Cells were let to adhere overnight, and endothelial cells (2 × 10^5 cells/cm^2) were seeded on the inside of the inserts (top side of the membranes) and placed in the wells of the 24-well culture plates. An endothelial cell monolayer model (E00) was constructed by a similar method as the co-culture model, except for the procedure of seeding of pericytes and astrocytes. BBB models were maintained in RBEC medium supplemented with 550 nM hydrocortisone.
# The permeability of the same 10 drugs was measured in the apical-to-basolateral (A-B) and basolateral-to-apical (B-A) directions as described in our previous study. All test compounds were dissolved in DMSO to yield a 10 mM solution, which was further diluted to 10 μM in HBSS-Hepes buffer (Hank’s Buffered Salt Solution containing 25 mM Hepes). […] The concentration of test compounds in the samples was determined by a Merck–Hitachi LaChrom HPLC with UV–VIS or a fluorescence detector (Merck, Darmstadt, Germany). […] Apparent permeability coefficients (Papp) were calculated using the following equation: Papp = (dQ/dT)/(A × C0), where dQ/dT is the cumulative amount in the receiver compartment versus time, A is the surface of the filter, and C0 is the initial concentration of the tracer in the luminal compartments.
# [5] = Sodium fluorescein permeability (Pe) of monkey BBB mono- and co-culture models; assay type: in vitro ADME; settings: cynomolgus monkey (Macaca fascicularis), 10 μg/mL Na-F, read-out: endothelial permeability coefficient for sodium fluorescein (Na-F Pe)
# Method: (§1) To evaluate the barrier function in different BBB models, transendothelial electrical resistance (TEER) was measured by an EVOM resistance meter and Endohm chamber (World Precision Instruments, Sarasota, FL, USA). The resistance values of blank inserts (background resistance) were subtracted from values of inserts with cells. TEER data are shown as Ω × cm^2. The permeability of sodium fluorescein (Na-F, MW: 376 Da) was also determined, and used as an index of paracellular transport. Cell culture inserts were transferred to 24-well plates containing 0.9 mL assay buffer (Dulbecco’s PBS (D-PBS) containing 0.9 mM CaCl2, 0.5 mM MgCl2, 4.5 g/L glucose, and 10 mM HEPES; pH 7.4). The luminal culture medium was replaced with 0.2 mL of assay buffer containing 10 μg/mL Na-F. Fifteen or 45 min after Na-F addition, the inserts were transferred to new wells containing the assay buffer. […] Transendothelial permeability coefficient (Pe) was calculated as previously described.
# [6] = test system: P-glycoprotein (P-gp, ABCB1); test: Bidirectional transport of rhodamine 123 across MBECs; settings: 5 μM R123, 1 h, 37 °C; MBEC
# Method: For bidirectional transport assay, the flux of 5 μM R123 in assay buffer was measured for 1 h at 37 °C in the luminal-to-abluminal and in the opposite abluminal-to-luminal directions. After measuring the R123 content in samples collected from both compartments, Pe values were calculated.
# [7] = test system: SLC35F2; set-up: method as in PMID 33144341; settings: monkey BBB kit; famotidine as inhibitor; cited from earlier work
# [8] = test system: monkey co-culture BBB model (EPA); test: Effect of TGF-β1 on barrier integrity (TEER) in monkey co-culture BBB model (EPA); assay type: cell-based, Macaca fascicularis; settings: TGF-β1 1 ng/mL, 3, 6, and 12-h time points
# Method: as §1
# [9] = test system: receptors for advanced glycation end-product (RAGE); settings: cited from earlier work
compound,measurement,setting,value
Cn1c(=O)c2c(ncn2C)n(C)c1=O [Caffeine],Mouse In Vivo Papp,[1],11.11 ×10⁻⁶ cm/s
same,Rat BBB Papp A-B,[2],64.95 ×10⁻⁶ cm/s
same,Rat BBB Papp B-A,[2],59.91 ×10⁻⁶ cm/s
same,mean Papp across the monkey BBB model,[3],71.7 ± 3.2 × 10^−6 cm/s
same,Papp A→B at 10 μM,[4],60.5 ×10⁻⁶ cm/s
same,Papp B→A at 10 μM,[4],65.2 ×10⁻⁶ cm/s
CN/C(=N/CCSCc1nc[nH]c1C)NC#N [Cimetidine],Mouse In Vivo Papp,[1],0.2 ×10⁻⁶ cm/s
same,Rat BBB Papp A-B,[2],3.86 ×10⁻⁶ cm/s
same,Rat BBB Papp B-A,[2],2.8 ×10⁻⁶ cm/s
same,Rat BBB Efflux Ratio,[2],0.75
same,Papp A→B at 10 μM,[4],3 ×10⁻⁶ cm/s
same,Papp B→A at 10 μM,[4],2.88 ×10⁻⁶ cm/s
same,efflux ratio at 10 μM,[4],0.97
C[C@H]1O[C@@H](O[C@H]2[C@@H](O)C[C@H](O[C@H]3[C@@H](O)C[C@H](O[C@H]4CC[C@@]5(C)[C@H](CC[C@@H]6[C@@H]5C[C@@H](O)[C@]5(C)[C@@H](C7=CC(=O)OC7)CC[C@]65O)C4)O[C@@H]3C)O[C@@H]2C)C[C@H](O)[C@@H]1O [Digoxin],Mouse In Vivo Papp,[1],0.1 ×10⁻⁶ cm/s
COc1ccc2c(c1)c(CC(=O)O)c(C)n2C(=O)c1ccc(Cl)cc1 [Indomethacin],Mouse In Vivo Papp,[1],0.13 ×10⁻⁶ cm/s
same,Rat BBB Papp A-B,[2],33.63 ×10⁻⁶ cm/s
same,Rat BBB Papp B-A,[2],44.07 ×10⁻⁶ cm/s
same,Rat BBB Efflux Ratio,[2],1.31
same,Papp A→B at 10 μM,[4],32.7 ×10⁻⁶ cm/s
same,Papp B→A at 10 μM,[4],39.1 ×10⁻⁶ cm/s
same,efflux ratio at 10 μM,[4],1.2
CN(C)C(=O)C(CCN1CCC(O)(c2ccc(Cl)cc2)CC1)(c1ccccc1)c1ccccc1 [Loperamide],Mouse In Vivo Papp,[1],1.05 ×10⁻⁶ cm/s
same,Rat BBB Papp A-B,[2],15.57 ×10⁻⁶ cm/s
same,Rat BBB Papp B-A,[2],21.76 ×10⁻⁶ cm/s
"O=C1OC2(c3ccc(O)cc3Oc3cc(O)ccc32)c2ccccc21 [Na-F, sodium fluorescein]",Papp at 10 μg/mL,"[5]; pH 7.4, MBEC co-culture with rat pericytes (EP0)",0.74 ± 0.06 ×10⁻⁶ cm/s
same,Papp at 10 μg/mL,"[5]; pH 7.4, MBEC co-culture with rat pericytes and astrocytes (EPA)",0.69 ± 0.07 ×10⁻⁶ cm/s
same,Papp at 10 μg/mL,"[5]; pH 7.4, monolayer MBEC model (E00)",2.44 ± 0.04 ×10⁻⁶ cm/s
C=C[C@H]1C[N@@]2CC[C@H]1C[C@@H]2[C@@H](O)c1ccnc2ccc(OC)cc12 [Quinidine],Mouse In Vivo Papp,[1],1.69 ×10⁻⁶ cm/s
same,Rat BBB Papp A-B,[2],6.28 ×10⁻⁶ cm/s
same,Rat BBB Papp B-A,[2],12.11 ×10⁻⁶ cm/s
"COC(=O)c1ccccc1-c1c2ccc(=N)cc-2oc2cc(N)ccc12 [R123, rhodamine 123]",transport of R123 from brain side to blood side (B-A) versus opposite direction (A-B),[6],almost four-fold higher
CC[C@]1(O)C[C@@H]2CN(CCc3c([nH]c4ccccc34)[C@@](C(=O)OC)(c3cc4c(cc3OC)N(C)[C@H]3[C@@](O)(C(=O)OC)[C@H](OC(C)=O)[C@]5(CC)C=CCN6CC[C@]43[C@@H]65)C2)C1 [Vinblastine],Mouse In Vivo Papp,[1],1.43 ×10⁻⁶ cm/s
same,Rat BBB Papp A-B,[2],2.42 ×10⁻⁶ cm/s
same,Rat BBB Papp B-A,[2],1.39 ×10⁻⁶ cm/s
same,Rat BBB Efflux Ratio,[2],0.69
same,Papp A→B at 10 μM,[4],1.47 ×10⁻⁶ cm/s
same,Papp B→A at 10 μM,[4],2.14 ×10⁻⁶ cm/s
same,efflux ratio at 10 μM,[4],1.46
"COCCn1c2c([n+](Cc3cnccn3)c1C)C(=O)c1ccccc1C2=O [YM155, sepantronium bromide]",BBB permeability and intraendothelial accumulation (SLC35F2 substrate transport),[7],famotidine-inhibitable BBB permeability and intraendothelial accumulation
O=C1Nc2ccc(Cl)cc2[C@@](C#CC2CC2)(C(F)(F)F)O1 [efavirenz],mean Papp across the monkey BBB model,[3],1.44e-05 cm/s
COc1cc2c(cc1Cc1cccc(Cl)c1F)c(=O)c(C(=O)O)cn2[C@H](CO)C(C)C [elvitegravir],mean Papp across the monkey BBB model,[3],1.86e-05 cm/s
O=c1c(O)c(-c2cc(O)c(O)c(O)c2)oc2cc(O)cc(O)c12 [myricetin],Papp in the monkey BBB model,[3],2.5 ×10⁻⁶ cm/s
Cc1ccnc2c1NC(=O)c1cccnc1N2C1CC1 [nevirapine],mean Papp across the monkey BBB model,[3],3.2e-05 cm/s
Cc1nnc(C(=O)NC(C)(C)c2nc(C(=O)NCc3ccc(F)cc3)c(O)c(=O)n2C)o1 [raltegravir],mean Papp across the monkey BBB model,[3],1.02e-05 cm/s
TGF-β1: cytokine transforming growth factor β1,decrease in TEER values compared to medium treated group,[8],~ 30%
oxytocin,reduction of blood-to-brain direction transport when RAGE was silenced by shRNA,[9],approximately 70%
